Experimental data: US20200405697A1, “Antitumor Agent” (Taiho Pharmaceutical Co., Ltd, priority 2017, published 2020)

Columns and labels:
[1] = target: T1, human RNR (histidine tagged human M1 and human M2 proteins) (Homo sapiens, UniProt P23921); experiment: Human RNR inhibition effect (dCDP formation from CDP); format: biochemical; settings: 10 μM CDP, 37° C. for 30 minutes, read-out: RNR inhibitory activity IC50
T1 construct: made in house; host or cells: Escherichia coli
T1 sequence (P23921 1-792): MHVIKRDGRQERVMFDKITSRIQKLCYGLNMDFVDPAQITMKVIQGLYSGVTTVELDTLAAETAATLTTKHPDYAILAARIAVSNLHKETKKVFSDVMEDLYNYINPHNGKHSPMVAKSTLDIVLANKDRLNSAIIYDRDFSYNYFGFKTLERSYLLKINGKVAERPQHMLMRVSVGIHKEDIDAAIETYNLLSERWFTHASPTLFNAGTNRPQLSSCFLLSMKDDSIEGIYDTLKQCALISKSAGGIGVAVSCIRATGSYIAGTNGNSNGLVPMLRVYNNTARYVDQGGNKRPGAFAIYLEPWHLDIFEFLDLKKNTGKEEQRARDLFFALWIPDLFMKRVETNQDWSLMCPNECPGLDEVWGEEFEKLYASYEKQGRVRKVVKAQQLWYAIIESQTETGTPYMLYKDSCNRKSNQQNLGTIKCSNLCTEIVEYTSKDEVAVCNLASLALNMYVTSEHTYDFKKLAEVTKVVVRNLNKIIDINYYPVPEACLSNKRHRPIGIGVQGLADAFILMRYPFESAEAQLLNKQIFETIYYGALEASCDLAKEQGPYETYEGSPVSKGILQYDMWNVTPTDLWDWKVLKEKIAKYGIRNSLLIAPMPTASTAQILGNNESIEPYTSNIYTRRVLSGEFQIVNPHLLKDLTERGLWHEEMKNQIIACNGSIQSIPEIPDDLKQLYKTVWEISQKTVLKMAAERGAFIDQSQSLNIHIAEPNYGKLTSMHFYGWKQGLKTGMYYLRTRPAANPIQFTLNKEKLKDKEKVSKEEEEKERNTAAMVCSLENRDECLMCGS
Summary of the method: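 His-tagged human M1 (isoform 1) and N-terminal 59-aa-truncated M2 (isoform 2), E. coli-expressed, Ni-purified, preincubated 20 min with compound (1% DMSO). Reaction with 10 μM CDP, 2 mM ATP, 0.24 mM NADPH, 6 mM DTT, 4 mM Mg acetate, 100 mM KCl, 50 mM HEPES pH 7.2, 30 min at 37° C. dCDP formed quantified by reverse-phase HPLC after heat stop.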

NCI-H460 cells = experiment: Cell proliferation inhibitory effect on human cancer cell lines: NCI-H460; format: cell-based; settings: 72 h, NCI-H460, Lung Cancer, ATCC recommended RPMI-1640 + 10% FBS, 1000 cell/well
Procedure: (§1) Human derived breast cancer cell line HCC 1806 cells (American Type Culture Collection, ATCC) were daily passaged at a cell density not exceeding 80% in ATCC recommended Roswell Park Memorial Institute medium (RPMI-1640) containing 10% fetal bovine serum (FBS). In order to start the test of cell proliferation inhibitory activity, HCC 1806 cells were suspended in the above medium, after seeing at 180 μL in each well of a 96-well flat bottom plate so that the number of cells per well was 2,000, the cells were cultured at 37° C. for 1 day in an incubator containing 5% carbon dioxide gas.
(§2) On the next day, the Example compound was dissolved in DMSO, and 20 μL of a drug additive solution diluted serially with distilled water to 10 times of the final concentration was added to each well of the culture plate of the cells, and the cells were cultured at 37° C. for 72 hours in an incubator containing 5% carbon dioxide gas. […] 100 μL of an extract solution (0.1 N NaH2PO4: 100% ethanol=1:1) was added to each well and mixed, and the mixture was measured at a wavelength of 540 nm using a plate reader (MTP-450 manufactured by Corona Electric Co., Ltd.). […]
(§3) According to the method of Test Example 2, the cell proliferation inhibitory effect on various cancer cell lines as described in Table 24 was evaluated. […]

ACHN cells = experiment: Cell proliferation inhibitory effect on human cancer cell lines: ACHN; format: cell-based; settings: 72 h, Kidney Cancer, EMEM + 10% FBS, 2000 cell/well
Procedure: as §1, §2, §3

A2780 cells = experiment: Cell proliferation inhibitory effect on human cancer cell lines: A2780; format: cell-based; settings: 72 h, A2780, Ovarian Cancer, RPMI-1640 + 10% FBS, 2000 cell/well
Procedure: as §1, §2, §3

MV-4-11 = experiment: Antitumor effect in human-derived blood cancer cell line (MV-4-11) subcutaneous transplantation model (in vivo); design: species or system nude mouse (BALB/cA Jcl-nu/nu); settings: oral, 100 mg/kg/day once per day for 14 days; RTV vs control group, Student-t test, p<0.05
Procedure: A human-derived blood cancer cell line MV-4-11 was transplanted subcutaneously into a nude mouse (BALB/cA Jcl-nu/nu, CLEA Japan, Inc.), and at the time when the tumor volume of the nude mouse on which the engrafted tumor reached 100 to 300 mm^3, four mice were assigned to each group by random stratification so that the average of the tumor volumes of each group was uniform (day 0), and the Example compound was orally administered daily at 100 mg/kg/day once per day for 14 days. Example Compound dosing solutions were prepared using 0.5% HPMC.
An electric balance for animals was used in body weight measurement. Rate of change in body weight on day n (BWCn) from body weight on day n (BWn) was calculated according to the following equation.
Rate of change in body weight BWCn (%)=(BWn−BW0)/BW0×100
Tumor volume (TV) was calculated according to the following equation by sandwiching and measuring the major axis and the minor axis with a digital caliper.
Tumor volume (mm^3)=Major axis (mm)×Minor axis (mm)×Minor axis (mm)/2
In order to compare the chronological transition of proliferation of tumor for the administration of each compound, relative tumor volume (RTV) setting the tumor volume at the time of grouping as 1 as the tumor proliferation rate was calculated according to the following formula, and the transition of the average value of RTV of each individual are shown in FIGS. 1 to 4.
RTV=(tumor volume at the day of tumor volume measurement)/(tumor volume at the time of the grouping)

[2] = Non-Patent Document 10; cited from earlier work
[3] = test system: non-small cell lung cancer cell line; settings: combination with cytarabine or gemcitabine; Non-Patent Document 11; cited from earlier work
mouse leukemia models = settings: combination with etoposide or cisplatin; Non-Patent Document 12; cited from earlier work
GB-1 cells = experiment: Cell proliferation inhibitory effect on human cancer cell lines: GB-1; format: cell-based; settings: GB-1, Glioblastoma, DMEM + 10% FBS, 3000 cell/well
Procedure: as §1
(§4) On the next day, the Example compound was dissolved in DMSO, and 20 μL of a drug additive solution diluted serially with distilled water to 10 times of the final concentration was added to each well of the culture plate of the cells, and the cells were cultured at 37° C. for 72 hours in an incubator containing 5% carbon dioxide gas. After culturing for 72 hours, 20 μL of glutaraldehyde was added to each well and allowed to stand for 30 minutes, then the plate was washed 10 times with water and was dried. 100 μL of a stain solution (0.05% crystal violet in a 20% methanol solution) was added to each well and allowed to stand for 30 minutes, then the plate was washed 10 times with water and was dried. 100 μL of an extract solution (0.1 N NaH2PO4: 100% ethanol=1:1) was added to each well and mixed, and the mixture was measured at a wavelength of 540 nm using a plate reader (MTP-450 manufactured by Corona Electric Co., Ltd.).
(§5) The growth inhibition rate was calculated from the following formula, and the concentration (IC50 (μM)) of a compound inhibiting 50% was determined.
as §3

HCC 1806 cells = experiment: Cell proliferation inhibitory effect on human breast cancer cell line; format: cell-based; settings: HCC1806, 72 h, crystal violet, read-out: Cell growth suppression IC50
Procedure: as §1, §4, §5
Growth inhibition rate (%){(C-B)−(T-B)}(C-B)×100
T: Absorbance of well to which Example compound was added
C: Absorbance of wells to which no Example compound was added
B: Absorbance of wells to which no cell was added

RNR = target: T2, RNR (Homo sapiens, UniProt P31350); settings: Non-Patent Document 7; cited from earlier work
T2 sequence (P31350 1-389): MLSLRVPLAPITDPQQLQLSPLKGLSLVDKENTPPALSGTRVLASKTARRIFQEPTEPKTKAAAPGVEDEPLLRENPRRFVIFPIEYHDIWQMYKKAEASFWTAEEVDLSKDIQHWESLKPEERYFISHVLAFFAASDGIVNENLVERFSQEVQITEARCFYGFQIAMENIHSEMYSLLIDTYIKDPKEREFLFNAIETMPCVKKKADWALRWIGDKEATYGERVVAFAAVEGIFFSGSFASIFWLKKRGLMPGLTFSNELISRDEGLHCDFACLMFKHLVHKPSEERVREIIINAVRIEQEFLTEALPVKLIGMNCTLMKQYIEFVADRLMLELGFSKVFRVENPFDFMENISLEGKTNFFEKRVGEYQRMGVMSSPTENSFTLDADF

IC50 [1] [nM] | IC50 (GB-1 cells) [nM] | Structure (SMILES) | antitumor effect (relative tumor volume, RTV) (MV-4-11) | also measured
30 |  | [2H]C([2H])([2H])C1(O)CCOc2c(S(=O)(=O)N[C@H](c3n[nH]c(=O)o3)[C@H](C)c3c(F)ccc(C)c3C)ccc(Cl)c21 (single isomer, unassigned) [Example 200A] | antitumor effect | IC50 (NCI-H460 cells): 130 nM; IC50 (ACHN cells): 130 nM; IC50 (A2780 cells): 130 nM
180 | 5220 | CCc1ccc(F)c([C@@H](C)[C@H](NS(=O)(=O)c2ccc(Cl)cc2C(N)=O)c2n[nH]c(=O)o2)c1C [Example 11, 5-chloro-2-(N-((1S,2R)-2-(3-ethyl-6-fluoro-2-methylphenyl)-1-(5-oxo-4,5-dihydro-1,3,4-oxadiazol-2-yl)propyl)sulfamoyl)benzamide] | antitumor effect | 
150 |  | COc1c(S(=O)(=O)N[C@H](c2n[nH]c(=O)o2)[C@H](C)c2c(F)ccc(C)c2C)ccc(Cl)c1C(C)O (stereo partly drawn) [Example 204, 4-chloro-N-((1S,2R)-2-(6-fluoro-2,3-dimethylphenyl)-1-(5-oxo-4,5-dihydro-1,3,4-oxadiazol-2-yl)propyl)-3-(1-hydroxyethyl)-2-methoxybenzenesulfonamide] |  | IC50 (HCC 1806 cells): 150 nM

Second part, the molecule before the results:

Structure (SMILES) | IC50 [1] [nM] | IC50 (GB-1 cells) [nM] | antitumor effect (relative tumor volume, RTV) (MV-4-11) | also measured
NC(=S)NN=Cc1ncccc1N [Example 3-AP, 3-aminopyridine-2-carboxaldehyde thiosemicarbazone] |  |  |  | side effects in clinical cases [2]: hypoxia, dyspnea, methemoglobinemia; cell proliferation inhibitory effect in combination [3]: enhancement in cell proliferation inhibitory effect; life extending effect in combination (mouse leukemia models): enhancement in life extending effect
Cc1ccc(F)c([C@@H](C)[C@H](NS(=O)(=O)c2ccc(Cl)cc2C(N)=O)c2n[nH]c(=O)o2)c1C [Example 5] | 140 | 1570 | antitumor effect | 
NC(=O)NO [HU, hydroxyurea] |  |  |  | RNR inhibitory activity (RNR): very weak
